From ChEMBL document CHEMBL6071182, “Design, Biological Characterization, and Discovery of Novel Cyclohexenyl Derivatives as Kinesin KIF18A Inhibitors for the Treatment of Ovarian Cancer” (ACS Med Chem Lett, 2024) come the findings set out here.

Some results are limits rather than exact numbers.

Series [1] is described as follows: cells. The conditions noted are these: Homo sapiens, OVCAR-3, 96 h.
Description: Antiproliferative activity against KIF18A siRNA sensitive human OVCAR-3 cells assessed as decrease in nuclei number measured after 4 days incubation by Hoechst 33342 DNA dye based nuclear count assay (NCA)
Series [2] is described as follows: Cmax in Sprague-Dawley rat at 2 mg/kg, po and 1 mg/kg, iv. The conditions noted are these: in vivo. In kind it is ADME, organism-based.
Series [3] in a line: AUClast in Sprague-Dawley rat at 2 mg/kg, po and 1 mg/kg, iv. The format is ADME, organism-based. The conditions noted are these: in vivo.
Series [4] can be described thus: Half life in Sprague-Dawley rat at 2 mg/kg, po and 1 mg/kg, iv. In kind it is ADME, organism-based. The settings on record: in vivo.
A short description of series [5]: Oral bioavailability in Sprague-Dawley rat at 2 mg/kg. The format is ADME, organism-based. The conditions noted are these: in vivo.
Series [6] addresses T1, Kinesin-like protein KIF18A (Homo sapiens, UniProt Q8NI77).
T1 sequence (Q8NI77 whole entry): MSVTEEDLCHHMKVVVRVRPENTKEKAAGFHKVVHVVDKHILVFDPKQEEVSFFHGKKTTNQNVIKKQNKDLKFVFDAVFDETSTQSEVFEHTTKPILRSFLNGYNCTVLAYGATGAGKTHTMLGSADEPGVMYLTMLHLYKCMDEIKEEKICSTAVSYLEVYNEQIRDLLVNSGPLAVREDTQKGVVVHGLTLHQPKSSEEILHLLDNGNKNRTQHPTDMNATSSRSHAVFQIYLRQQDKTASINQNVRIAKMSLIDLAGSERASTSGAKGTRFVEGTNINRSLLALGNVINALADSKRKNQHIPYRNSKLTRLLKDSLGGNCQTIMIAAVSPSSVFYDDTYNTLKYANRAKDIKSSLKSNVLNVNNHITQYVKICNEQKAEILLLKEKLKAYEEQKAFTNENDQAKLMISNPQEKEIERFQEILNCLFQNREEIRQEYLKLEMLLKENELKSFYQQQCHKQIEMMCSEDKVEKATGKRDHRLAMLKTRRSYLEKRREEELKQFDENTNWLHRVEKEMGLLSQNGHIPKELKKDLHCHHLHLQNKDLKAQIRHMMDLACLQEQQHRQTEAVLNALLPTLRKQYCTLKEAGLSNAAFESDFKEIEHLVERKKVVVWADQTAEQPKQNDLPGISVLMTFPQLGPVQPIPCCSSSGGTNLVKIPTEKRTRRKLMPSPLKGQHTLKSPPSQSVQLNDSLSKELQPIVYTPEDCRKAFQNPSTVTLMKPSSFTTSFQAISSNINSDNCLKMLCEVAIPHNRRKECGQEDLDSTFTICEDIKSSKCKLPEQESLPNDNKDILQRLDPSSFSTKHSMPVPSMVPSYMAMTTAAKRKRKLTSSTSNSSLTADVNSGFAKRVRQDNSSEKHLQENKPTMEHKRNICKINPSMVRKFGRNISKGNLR
Nature of the series: Inhibition of human recombinant KIF18A (1 to 436) by ADP-Glo motor assay. (In general: ADP-Glo turns the ADP formed in a reaction into a luminescent signal.)

Series [7] addresses T1, Kinesin-like protein KIF18A. Nature of the series: Inhibition of human recombinant KIF18A (1 to 374) assessed as luminescence measured after 70 mins by ADP-Glo motor assay.
Series [8] concerns NUGC-3. In words: Antiproliferative activity against human NUGC-3 cells assessed as chemiluminescence measured after 4 days incubation by Celltiter Glo assay. The conditions noted are these: NUGC-3, 96 h. Background: ATP-based viability assays read luminescence as a measure of living cells.
The subject of series [9] is NCI-N87. Nature of the series: Antiproliferative activity against human NCI-N87 cells assessed as chemiluminescence measured after 4 days incubation by Celltiter Glo assay. The conditions noted are these: NCI-N87, 96 h.
Series [10] deals with BXPC-3. Nature of the series: Antiproliferative activity against human BxPC-3 cells assessed as chemiluminescence measured after 4 days incubation by Celltiter Glo assay. The settings on record: BXPC-3, 96 h.
Series [11] in a line: Half life in Balb/c mouse at 30 mg/kg, po. In kind it is ADME, organism-based. The conditions noted are these: in vivo.
The nature of series [12]: Cmax in Balb/c mouse at 30 mg/kg, po. In kind it is ADME, organism-based. The conditions noted are these: in vivo.
Series [13] can be described thus: AUC in Balb/c mouse at 30 mg/kg, po. In kind it is ADME, organism-based. The conditions noted are these: in vivo.
Series [14] has as its target T2, Kinesin-like protein KIF11 (Homo sapiens, UniProt P52732).
T2 sequence (P52732 whole entry): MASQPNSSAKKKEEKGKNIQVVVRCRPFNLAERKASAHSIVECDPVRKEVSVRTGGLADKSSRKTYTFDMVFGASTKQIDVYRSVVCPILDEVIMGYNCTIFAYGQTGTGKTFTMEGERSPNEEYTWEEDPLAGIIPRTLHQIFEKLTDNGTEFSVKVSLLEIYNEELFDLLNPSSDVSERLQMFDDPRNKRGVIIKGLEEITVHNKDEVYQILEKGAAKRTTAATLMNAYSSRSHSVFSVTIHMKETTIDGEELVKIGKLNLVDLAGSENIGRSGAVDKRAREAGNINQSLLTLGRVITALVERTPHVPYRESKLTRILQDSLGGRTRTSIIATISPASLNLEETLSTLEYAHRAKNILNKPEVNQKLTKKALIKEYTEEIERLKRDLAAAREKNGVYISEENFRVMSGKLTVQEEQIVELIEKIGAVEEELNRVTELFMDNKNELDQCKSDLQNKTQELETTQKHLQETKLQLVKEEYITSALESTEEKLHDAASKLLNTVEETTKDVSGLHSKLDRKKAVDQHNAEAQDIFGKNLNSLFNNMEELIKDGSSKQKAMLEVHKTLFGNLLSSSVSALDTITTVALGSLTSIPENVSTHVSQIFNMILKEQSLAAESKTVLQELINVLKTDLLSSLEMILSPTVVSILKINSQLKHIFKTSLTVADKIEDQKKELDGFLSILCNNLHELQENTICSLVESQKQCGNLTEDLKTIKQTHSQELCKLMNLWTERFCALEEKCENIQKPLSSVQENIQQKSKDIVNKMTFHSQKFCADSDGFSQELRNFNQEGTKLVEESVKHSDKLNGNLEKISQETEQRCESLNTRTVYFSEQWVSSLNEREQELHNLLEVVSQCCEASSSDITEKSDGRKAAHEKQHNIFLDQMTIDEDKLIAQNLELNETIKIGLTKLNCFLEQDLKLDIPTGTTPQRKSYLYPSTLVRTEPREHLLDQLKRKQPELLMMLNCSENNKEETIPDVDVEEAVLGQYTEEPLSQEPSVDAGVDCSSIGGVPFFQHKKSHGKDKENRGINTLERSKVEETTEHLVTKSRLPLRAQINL
In words: Inhibition of EG5 (unknown origin) assessed as luminescence measured after 135 mins by ADP-Glo motor assay.

A word on the EC50: it is the concentration needed to bring the measured effect to its halfway point. Turning to `Cc1cc(NC(=O)c2ccc(NS(=O)(=O)CCO)cc2C2=CCC3(CC2)CC3)nc(N2CCCC2)n1`, the EC50 in series [1] came to 577 nM.
Broadly, the Cmax is the maximum level reached in the sampled fluid or tissue. A word on the AUC(0-t): it is the area under the concentration-time curve up to a stated or last time point. Low values mean low exposure, high ones high exposure. For orientation: half-life means how long it takes for the measured level to halve. A low value points to rapid decline. What is called bioavailability is the share of a dose that reaches the circulation, judged against a reference dose that is usually intravenous. Read a high bioavailability as much systemic uptake. Regarding `O=C(Nc1cccc(N2CCC(F)(F)CC2)n1)c1ccc(NS(=O)(=O)CCO)cc1C1=CCC2(CC1)CC2`, the concentration in series [2] peaked (Cmax) at 285 ng/mL. This compound also came in with an AUC(0-t) in series [3] of 1340 ng·h/mL. This compound also showed a half-life in series [4] of 2.2 h. Besides, in series [5], the bioavailability amounted to 40.4%. This compound also had an EC50 in [1] of 18.2 nM.
Regarding `Cc1cc(NC(=O)c2ccc(NS(=O)(=O)CCO)cc2C2=CCC3(CC2)CC3)nc(C2CCC(F)(F)CC2)n1`, in series [1], the EC50 worked out at 186 nM.
Still for that read-out and setting: under `O=C(Nc1ccnc(N2CCC(F)(F)CC2)c1)c1ccc(NS(=O)(=O)CCO)cc1C1=CCC2(CC1)CC2` stands 1630 nM; under `Cc1cc(NC(=O)c2ccc(NS(=O)(=O)CCO)cc2-c2cnn(C)c2)nc(N2CCC(F)(F)CC2)n1`, greater than 10000 nM; under `Cc1cc(NC(=O)c2ccc(NS(=O)(=O)CCO)cc2N2CC3CC3C2)nc(N2CCC(F)(F)CC2)n1` (configuration not stated), 2090 nM.
The IC50 is the concentration that inhibits the measured activity by half. Consider `Cc1cc(NC(=O)c2ccc(NS(=O)(=O)[C@H](C)CO)cc2N2CCC3(CC2)CC3)nc(N2CCC(F)(F)CC2)n1`, for which, in series [6], the IC50 was determined as 71 nM.
In series [2], `O=C(Nc1cncc(N2CCC(F)(F)CC2)n1)c1ccc(NS(=O)(=O)CCO)cc1C1=CCC2(CC1)CC2` registered a Cmax of 140 ng/mL. In series [3], this compound displayed an AUC(0-t) of 322 ng·h/mL. For the same compound, in series [4], the half-life was 1.2 h. The compound also gave a bioavailability in [5] of 22.9%. Further, the midpoint of the response in [1], the EC50, lay at 16.5 nM.
As for `Cc1cc(NC(=O)c2ccc(NS(=O)(=O)CCO)cc2C2=CCC3(CC2)CC3)cc(N2CCC(F)(F)CC2)c1`, the IC50 entry in series [7] is “Not Active”. This compound returned an EC50 in series [1] of 308 nM.
`Cc1cc(NC(=O)c2ccc(NS(=O)(=O)CCO)cc2C2CCC3(CC2)CC3)nc(N2CCC(F)(F)CC2)n1`: in series [1], it took 1360 nM to reach a half-maximal effect (EC50).
Same read-out and setting: for `Cc1cc(NC(=O)c2ccc(NS(=O)(=O)CCO)cc2N2C3CCC2CC2(CC2)C3)nc(N2CCC(F)(F)CC2)n1` the value was 465 nM.
By AUC is commonly meant concentration integrated over time. The low end stands for less exposure, the high end for more exposure. Consider `Cc1cc(NC(=O)c2ccc(NS(=O)(=O)CCO)cc2N2CCC3(CC2)CC3)nc(N2CCC(F)(F)CC2)n1` [AMG-650], for which the results for the IC50 in [8], in series [9] and in [10] were 111 nM, 7490 nM and 7450 nM, respectively. The compound also had a half-life in series [11] of 7.98 h. This compound came in with a Cmax in series [12] of 7040 ng/mL. Moreover, the exposure (AUC) in series [13] was 110000 ng·h/mL. This compound showed a concentration giving a half-maximal response (EC50) in [1] of 72.7 nM.
As to `Cc1cc(NC(=O)c2ccc(NS(=O)(=O)CCO)cc2C2=CCC3(CC2)CC3)nc(N2CC(F)(F)C2)n1`, the EC50 in series [1] was found to be 138 nM.
As to `O=C(Nc1ccc(F)c(N2CCC(F)(F)CC2)n1)c1ccc(NS(=O)(=O)CCO)cc1C1=CCC2(CC1)CC2`, in series [2], the concentration peaked (Cmax) at 424 ng/mL. Also, the AUC(0-t) in series [3] came to 3400 ng·h/mL. The compound also had a half-life in [4] of 4.7 h. In series [5], this compound returned a bioavailability of 67.9%. In [1], it took 40.5 nM to reach a half-maximal effect (EC50).
`O=C(Nc1ccnc(N2CCC(F)(F)CC2)c1F)c1ccc(NS(=O)(=O)CCO)cc1C1=CCC2(CC1)CC2`: in series [1], the EC50 amounted to 206 nM. This counts as sub-micromolar.
With `C[C@H]1CN(c2cccc(NC(=O)c3ccc(NS(=O)(=O)CCO)cc3N3CCC4(CC3)CC4)n2)CCO1`, the IC50 in series [6] was 62 nM.
For `Cc1cc(NC(=O)c2ccc(NS(=O)(=O)CCO)cc2C2=CCC3(CC2)CC3)nc(N2CC3CC3C2)n1` (configuration not stated), the EC50 in [1] is 743 nM.
Turning to `Cc1cc(NC(=O)c2ccc(NS(=O)(=O)CCO)cc2C2=CCC3(CC2)CC3)nc(N2CCC(F)(F)CC2)n1`, in [14], the IC50 was greater than 30000 nM. Moreover, the peak level in series [2] (Cmax) was 158 ng/mL. This compound also gave an AUC(0-t) in [3] of 1610 ng·h/mL. Besides, the half-life in [4] was 4.2 h. Moreover, the bioavailability in [5] came to 69.5%. The same compound yielded an EC50 in series [1] of 70.8 nM.
`Cc1cc(NC(=O)c2ccc(NS(=O)(=O)CCO)cc2C2=CCN(C)CC2)nc(N2CCC(F)(F)CC2)n1` registered an EC50 in [1] greater than 10000 nM.
`O=C(Nc1cccc(N2CCC(F)(F)CC2)c1)c1ccc(NS(=O)(=O)CCO)cc1C1=CCC2(CC1)CC2`: in [7], the IC50 result is reported as “Not Active”. Moreover, a half-maximal response in series [1] (EC50) required 337 nM.
For the compound `Cc1cc(NC(=O)c2ccc(NS(=O)(=O)CCO)cc2N2C3CCCC2CC3)nc(N2CCC(F)(F)CC2)n1`, in series [1], the EC50 was 665 nM.
Regarding `Cc1cc(NC(=O)c2ccc(NS(=O)(=O)CCO)cc2NC2CCCCC2)nc(N2CCC(F)(F)CC2)n1`, the EC50 in series [1] is greater than 10000 nM.
